System: BT20 Cell
Test: Cancer Cell Lysate Total L-Glutamate Assay
Format: cell-based
Conditions: Homo sapiens, BT-20, 2 h, total L-glutamate in cell lysate, BT20 cells, 2 hour incubation with test compound
Description: Cancer Cell Lysate Total L-Glutamate Assay
Cancer cell lines (BT20, HCT116, SKOV3, HCC70, SUM149, MDA-MB-231, etc.) were plated in 96 well plates and were used for the total L-glutamate assay when the monolayer was ca. 80% confluent. The media was changed and fresh media containing L-glutamine was added to the 96 well plates, just before incubation of the cells with test compound. The test compound was diluted in 100% DMSO using a two-fold or three-fold serial dilution. Small volumes of the dilutions of test compound were added to the 96 well plates so the final DMSO concentration was 0.5% v/v in the cell culture medium. The cells were incubated at 37° C., 5% CO2, and 95% air for 2 hours. Following the 2 hour incubation, the cells were washed with water 2 times. After the last water wash, 100 μL of 50 mM Tris-HCl pH 7.4 and 0.01% Tween-20 was added to each well and the plate was frozen at −80° C. The 96 well plate was frozen and thawed a total of 3 times and then sonicated for 5 min at 4° C. in a bath sonicator. Following sonication, the 96 well plate was centrifuged for 5 min at 1000 rpm and 10 μL of the supernatant was transferred to a 384 well assay plate.
Total L-glutamate (L-glutamic acid) in the cell lysis supernatant was detected using glutamate oxidase, horseradish peroxidase and Amplex Red reagent (10-acetyl-3,7-dihydroxy phenoxazine, Invitrogen # A22177). In this assay, L-glutamate was oxidized by glutamate oxidase to produce alpha-ketoglutarate (2-oxopentane dioic acid), NH3 and H202. The H2O2 (hydrogen peroxide) was used by horseradish peroxidase (HRP) to oxidize the Amplex Red Reagent to resorufin which is a fluorescent molecule. When resorufin is excited with light with a wavelength 530-560 nm, it emits light at approximately 585 nm. For detection of total L-glutamate in 10 μL of lysate, 15 μL of an enzyme mixture was added to each well of the 384 well assay plate. The enzyme mixture consisted of 50 mM Tris-HCl pH 7.4, 0.01% Tween-20, 50 μM Amplex Red reagent (final concentration), 0.04 U/mL L-glutamate oxidase (final concentration), and 0.125 U/mL HRP (final concentration). The 384 well assay plate was incubated at room temperature for 5 min and then the fluorescence intensity of each well was measured at 585 nm using a 530-560 nm excitation wavelength in a plate based fluorimeter such as an LJL Analyst or a Tecan Infinite plate reader. Standard curves were constructed for this assay using dilutions of a L-glutamate standard. IC50 were calculated by plotting the relative fluorescent units vs log of the inhibitor concentration and fitting the data to the four parameter logistic equation.
Reference: Chapman J. and Zhou M. (1999) Microplate-based fluorometric methods for the enzymatic determination of I-glutamate: application in measuring I-glutamate in food samples. Analytica Chim Acta 402:47-52.

IC50	SMILES
0.7 nM	O=C(Cc1ccccc1)Nc1ccc(CC2CCC(c3nnc(NC(=O)Cc4ccccn4)s3)C2)nn1 (racemic) [Example 1, 2-phenyl-N-(6-{[(cis)-3-{5-[(pyridine-2-ylacetyl)amino]-1,3,4-thiadiazol-2-yl}cyclopentyl]methyl}pyridazin-3-yl)acetamide]
6.4 nM	O=C(Cc1ccccn1)Nc1nnc(CC2CCC(c3nnc(NC(=O)Cc4ccccn4)s3)C2)s1 (racemic) [Example 3, (rac)-2-(pyridin-2-yl)-N-(5-{[(cis)-3-{5-[(pyridin-2-ylacetyl)amino]-1,3,4-thiadiazol-2-yl}cyclopentyl]methyl}-1,3,4-thiadiazol-2-yl)acetamide]
17 nM	O=C(Cc1ccccc1)Nc1nnc(CC2CCC(c3nnc(NC(=O)Cc4ccccc4)s3)C2)s1 (racemic) [Example 9, (rac)-2-phenyl-N-(5-{[(cis)-3-{5-[(phenylacetyl)amino]-1,3,4-thiadiazol-2-yl}cyclopentyl]methyl}-1,3,4-thiadiazol-2-yl)acetamide]
47.9 nM	CC(=O)Nc1nnc(C2CCC(Cc3nnc(NC(=O)c4ccccc4)s3)C2)s1 (racemic) [Example 11, N-[5-({(cis)-3-[5-(acetylamino)-1,3,4-thiadiazol-2-yl]cyclopentyl}methyl)-1,3,4-thiadiazol-2-yl]benzamide]
10.6 nM	CC(=O)Nc1nnc(C2CCC(Cc3nnc(NC(=O)Cc4ccccc4)s3)C2)s1 (racemic) [Example 15, N-[5-({(cis)-3-[5-(acetylamino)-1,3,4-thiadiazol-2-yl]cyclopentyl}methyl)-1,3,4-thiadiazol-2-yl]-2-phenylacetamide]
79.7 nM	CC(=O)Nc1nnc(C2CCC(Cc3nnc(NC(=O)Cc4ccccn4)s3)C2)s1 (racemic) [Example 18, (rac)-N-[5-({(cis)-3-[5-(acetylamino)-1,3,4-thiadiazol-2-yl]cyclopentyl}methyl)-1,3,4-thiadiazol-2-yl]-2-(pyridin-2-yl)acetamide]
78.9 nM	CCNc1nnc(C2CCC(Cc3nnc(NC(=O)Cc4ccccn4)s3)C2)s1 (racemic) [Example 24, (rac)-N-[5-({(cis)-3-[5-(ethylamino)-1,3,4-thiadiazol-2-yl]cyclopentyl}methyl)-1,3,4-thiadiazol-2-yl]-2-(pyridin-2-yl)acetamide]
1 nM	O=C(Cc1ccccn1)Nc1ccc(C2CC3(C2)CC(c2ccc(NC(=O)Cc4ccccn4)nn2)C3)nn1 (racemic) [Example 25, N,N′-(spiro[3.3]heptane-2,6-diyldipyridazine-6,3-diyl)bis[2-(pyridin-2-yl)acetamide]]
1.3 nM	O=C(Cc1ccccn1)Nc1ccc(C2CCC(Cc3nnc(NC(=O)Cc4ccccn4)s3)C2)nn1 (racemic) [Example 26, 2-(pyridin-2-yl)-N-{5-[(3-{6-[(pyridin-2-ylacetyl)amino]pyridazin-3-yl}cyclopentyl)methyl]-1,3,4-thiadiazol-2-yl}acetamide]
242 nM	CC(C)(C)C(=O)Nc1nnc(CC2CCC(c3nnc(NC(=O)C(C)(C)C)s3)C2)s1 (racemic) [Example 27, (rac)-N-(5-{[(cis)-3-{5-[(2,2-dimethylpropanoyl)amino]-1,3,4-thiadiazol-2-yl}cyclopentyl]methyl}-1,3,4-thiadiazol-2-yl)-2,2-dimethylpropanamide]
1.9 nM	CC(C(=O)Nc1nnc(CC2CCC(c3nnc(NC(=O)C(C)c4cccnc4)s3)C2)s1)c1cccnc1 (racemic) [Example 30, (rac)-2-(pyridin-3-yl)-N-(5-{[(cis)-3-(5-{[2-(pyridin-3-yl)propanoyl]amino}-1,3,4-thiadiazol-2-yl)cyclopentyl]methyl}-1,3,4-thiadiazol-2-yl)propanamide]
2370 nM	CC(=O)Nc1nnc(C2CCC(Cc3nnc(N)s3)C2)s1 (racemic) [Example 42, (rac)-N-(5-{(cis)-3-[(5-amino-1,3,4-thiadiazol-2-yl)methyl]cyclopentyl}-1,3,4-thiadiazol-2-yl)acetamide]
94.4 nM	CC(=O)Nc1nnc(CC2CCC(c3nnc(NC(=O)Cc4ccccc4)s3)C2)s1 (racemic) [Example 43, (rac)-N-{5-[(cis)-3-{[5-(acetylamino)-1,3,4-thiadiazol-2-yl]methyl}cyclopentyl]-1,3,4-thiadiazol-2-yl}-2-phenylacetamide]
349 nM	CC(=O)Nc1nnc(C2CCC(Cc3nnc(NC(=O)Cc4ncccn4)s3)C2)s1 (racemic) [Example 46, (rac)-N-[5-({(cis)-3-[5-(acetylamino)-1,3,4-thiadiazol-2-yl]cyclopentyl}methyl)-1,3,4-thiadiazol-2-yl]-2-(pyrimidin-2-yl)acetamide]
512 nM	CC(=O)Nc1nnc(C2CCC(Cc3nnc(NC(=O)Cc4cnccn4)s3)C2)s1 (racemic) [Example 47, (rac)-N-[5-({(cis)-3-[5-(acetylamino)-1,3,4-thiadiazol-2-yl]cyclopentyl}methyl)-1,3,4-thiadiazol-2-yl]-2-(pyrazin-2-yl)acetamide]
989 nM	CC(=O)Nc1nnc(CC2CCC(c3nnc(NC(=O)c4ccccc4)s3)C2)s1 (racemic) [Example 48, (rac)-N-{5-[(cis)-3-{[5-(acetylamino)-1,3,4-thiadiazol-2-yl]methyl}cyclopentyl]-1,3,4-thiadiazol-2-yl}benzamide]
789 nM	CC(=O)Nc1nnc(C2CCC(Cc3nnc(NC(=O)Cc4cncnc4)s3)C2)s1 (racemic) [Example 49, (rac)-N-[(cis)-5-({3-[5-(acetylamino)-1,3,4-thiadiazol-2-yl]cyclopentyl}methyl)-1,3,4-thiadiazol-2-yl]-2-(pyrimidin-5-yl)acetamide]
29.8 nM	CC(=O)Nc1nnc(C2CCC(Cc3nnc(NC(=O)Cc4ccc(C)nc4)s3)C2)s1 (racemic) [Example 52, (rac)-N-[5-({(cis)-3-[5-(acetylamino)-1,3,4-thiadiazol-2-yl]cyclopentyl}methyl)-1,3,4-thiadiazol-2-yl]-2-(6-methylpyridin-3-yl)acetamide]
391 nM	CC(=O)Nc1nnc(CC2CCC(c3nnc(NC(=O)Cc4ccccn4)s3)C2)s1 (racemic) [Example 55, (rac)-N-{5-[(cis)-3-{[5-(acetylamino)-1,3,4-thiadiazol-2-yl]methyl}cyclopentyl]-1,3,4-thiadiazol-2-yl}-2-(pyridin-2-yl)acetamide]
274 nM	CC(=O)Nc1nnc(C2CCC(C)(c3nnc(NC(C)=O)s3)C2(C)C)s1 (racemic) [Example 60, N,N′-{[-1,2,2-trimethylcyclopentane-1,3-diyl]di-1,3,4-thiadiazole-5,2-diyl}diacetamide]
1.6 nM	O=C(Cc1ccccn1)Nc1nnc(C2CC3(C2)CC(c2nnc(NC(=O)Cc4ccccn4)s2)C3)s1 (racemic) [Example 61, N,N′-(spiro[3.3]heptane-2,6-diyldi-1,3,4-thiadiazole-5,2-diyl)bis[2-(pyridin-2-yl)acetamide]]
1290 nM	CCNc1nnc(C2CCC(Cc3nnc(NC(C)=O)s3)C2)s1 (racemic) [Example 66, (rac)-N-[5-({(cis)-3-[5-(ethylamino)-1,3,4-thiadiazol-2-yl]cyclopentyl}methyl)-1,3,4-thiadiazol-2-yl]acetamide]
0.2 nM	O=C(Cc1ccccn1)Nc1ccc(CC2CCC(c3nnc(NC(=O)Cc4ccccn4)s3)C2)nn1 (racemic) [Example 70, (rac)-2-(pyridin-2-yl)-N-{5-[(cis)-3-({6-[(pyridin-2-ylacetyl)amino]pyridazin-3-yl}methyl)cyclopentyl]-1,3,4-thiadiazol-2-yl}acetamide]

— patent publication US10676471B2, “Cycloalkyl-linked diheterocycle derivatives” (Pfizer Inc., priority 2014, dated 2020)
